Experimental data published in US20100129344A1, “MEDICAL USES AND THERAPIES BASED UPON THE ACTION OF AZUROCIDIN ON IGFBP-1” (priority 2005, published 2010).
Entries after “also recorded” stand apart in the source; their conditions may differ. Like-named read-outs stand apart in the source and are kept apart here. Where a SMILES comes first, the peptide text is derived from it. [ ]: non-standard residue; d: D form. The star is where a group is joined. Sta = CC(C)C[C@H](N)[C@@H](O)CC(=O)O; Isovaleryl = CC(C)CC(=O)*

Columns and labels:
[1] = test system: urinary protease activity at neutral pH (IGFBP-1 proteolysis); experiment: Effect of protease inhibitors, divalent cations and peptides on urinary protease activity at neutral pH (radioiodinated npIGFBP-1, SDS-PAGE, autoradiography); format: biochemical, human; conditions: for effect on proteolysis in urine: not shown; for effect of peptides on IGFBP-1 proteolysis: increasing concentrations pre-incubated with npIGFBP-1 30 min 22 C, then 0.5 μl urine 2 h 37 C (FIG. 8A)
Experimental: A: Effect of 100 μM pepstatin A, 10 μM E64, 2.5 mM leupeptin, 10 mM PMSF, 100 μM aprotinin, 2.5 mM kallikrein inhibitor and benzamidine (mM) and chymostatin (μM). Molecular mass markers are indicated by the arrows. B: Densitometry measurements of intact IGFBP-1. The results are the mean±SEM, pooled from 6-8 experiments. […] The mean effect of urine pooled from all the experiments is shown in the open bar. *, P<0.05; ** P<0.01 (paired t-test);
(§1) Urine, 0.5 μl, was added and the incubation continued for 2 h at 37 C. The fragments were separated by 14% SDS-PAGE and detected by autoradiography. Molecular mass markers are indicated by the arrows. B: Biotinylated recombinant pIGFBP-1 was bound to streptavidin coated plates and then incubated without (open squares) or with 100 ng IGF-I (closed circles) or des(1-3)IGF-I (open circles). Wells were then incubated with increasing concentration of partially purified azurocidin at […] for 2-h at 37 C. After acidification of all wells, including controls, with 1 M HCl to dissociate bound peptides, radioiodinated IGF-I was added for 2 h at 22 C, unbound tracer was removed by washing, and the bound counts determined;
IGFBP-1 was radioiodinated with ^125I using the chloramine T method. After incubation without and with protease in phosphate buffered saline, pH 7 at 37 C, fragments were separated on 14% non-reducing SDS-PAGE, the gel dried, and visualized by autoradiography.

[2] = test system: acid-activated IGFBP-1 protease activity in human urine; experiment: Effect of pepstatin on urinary IGFBP-1 protease activity at pH 2 (streptavidin plate, IGF-II binding); format: biochemical; conditions: pepstatin A 10 μM, pH 2, 5 μl urine, 2 h, 37 C
Experimental: (§2) A-D: Radioiodinated recombinant npIGFBP-1 was subjected to 14% SDS-PAGEalone (*) or after proteolysis for 2 h at 37 C with 0.5 μl urine or 0.25 μl eluate, and the fragments detected by autoradiography. Molecular mass markers are indicated by the arrows. A: pH-dependence of urinary IGFBP-1 protease activity. B: Urine, flowthrough (FT) from the heparin affinity column, and eluate at pH 2 and 7. C: pHdependence of eluate from heparin affinity chromatography. D: Acid-activated protease activity is destroyed by neutralization. Radioiodinated pIGFBP-1 was incubated without (*) and with 0.5 μl urine for 2 h at 37 C at pH 2. Prior to incubation the urine was either untreated (lane a), adjusted to pH 2 for 15 min (lane B) or adjusted to pH 2 for 15 min and then to pH 7 for a further 15 min (lane C). E: Effect of pepstatin. […] The wells were washed, incubated with radioiodinated IGF-II for 2 h at 22 C, washed, and the bound counts detected;
(§3) IGFBP-1 was biotinylated with sulfo-NHS-LC-LC-biotin and bound to streptavidin coated plates, then incubated without and with protease in phosphate buffered saline, pH 7 at 37 C. After washing, IGF-binding fragments were determined by incubation with radioiodinated IGF-I for 2 h at 22 C. Unbound tracer was removed by washing, and the bound counts determined.

[3] = test system: neutral IGFBP-1 protease activity in human urine; experiment: Effect of pepstatin on urinary IGFBP-1 protease activity at pH 7 (streptavidin plate, IGF-II binding); format: biochemical; conditions: pepstatin A 10 μM, pH 7, 5 μl urine, 2 h, 37 C
Experimental: as §2, §3

[4] = test system: MCF-7 human breast cancer cells; experiment: 3H-Thymidine incorporation; format: cell-based; conditions: IGF-II 10 ng/ml, 24 h, serum-free; 6 experiments
Experimental: Cell studies. MCF-7 human breast cancer cells were maintained in MEM alpha ribonucleic acid-free medium supplemented with 10% foetal bovine serum, 50 Unit/ml penicillin sodium, 50 μg/ml streptomycin sulfate and 2 mM L-glutamine at 37C in 5% CO2 humidified environment.
3H-Thymidine incorporation: Experiments were carried out in 48-well plates, at 70% confluence. After a 20-h incubation in serum-free medium supplemented with 0.1% BSA, the experimental conditions were added for a further 24 h, with ^3H-thymidine (1 μCi/ml) added for the last 4 h. Cells were then washed with ice-cold 0.9% NaCl three times and incubated with ice-cold 5% TCA for 15 min at 22 C. The fixed nucleotides were solubilized in 0.1M NaOH at 22 C and subjected to liquid scintillation counting.
Statistical analyses. The effect of IGF-II and IGFBP-1 in muscle cell culture was analyzed by two-way ANOVA. Where significant differences were observed, comparisons were made using the Tukey test. In the study using MCF-7 breast cancer cells the Wolcoxon Matched Pairs test was used. Statistical significance was set at P<0.05.

[5] = test system: primary human skeletal myotubes; experiment: 2-Deoxyglucose transport (glucose uptake); format: cell-based; conditions: IGF-II 10 ng/ml (submaximal), 90 min
Experimental: Primary human skeletal myotubes were incubated under serum-free conditions for 24 h. Glucose uptake was determined as described in the Methods. The results are the mean±SEM of four experiments using cells from different individuals each with 3 replicates; and are expressed as the percentage of uptake in the absence of IGF-II or IGFBP-1 for each. The effect of IGF-II is shown in the hatched bars. The effect of pIGFBP-1 on stimulation of glucose uptake by 10 ng/ml IGF-II was analyzed by 2-way ANOVA for each of the 20 ng/ml and 80 ng/ml concentrations; *, P<0.01, **, P<0.001, compared to no IGF-II; ††, P<0.001, compared to no IGFBP-1 or intact IGFBP-1. […]
2-Deoxyglucose transport: Glucose uptake was performed as previously described for primary human muscle cells (Bouzakri et al, Diabetologia, 47, 1314-1323, 2004). […] Cells were then washed four times with pre-warmed buffer (150 mmol/l NaCl, […] KCl, 1.2 mmol/l MgSO4, 1.2 mmol/l CaCL2, 2.5 mmol/l NaH2PO4, 10 mmol/l HEPES, pH 7.4) and glucose uptake was measured for 15 min using [3H]2-deoxyglucose (50 μmol/l, 14,800 Bq/well). Results were expressed as the percentage of glucose uptake in the absence of IGF-II or IGFBP-1.
Statistical analyses. The effect of IGF-II and IGFBP-1 in muscle cell culture was analyzed by two-way ANOVA. […]

[6] = test system: azurocidin-dependent protease activity; experiment: Azurocidin-dependent protease activity on plate-bound biotinylated pIGFBP-1 with pre-bound peptides; format: biochemical, human; conditions: 100 ng peptide on plate-bound pIGFBP-1, partially purified azurocidin, 2 h, 37 C (FIG. 8B)
Experimental: as §1, §3

[7] = 10 mM cation, pH 7, 0.5 μL urine, 2 h, 37 C

Compound: c1cnc2c(c1)ccc1cccnc12 [1,10-phenothroline]
- effect on the degree of IGFBP-1 degradation ([1]; data not shown): no effect

Compound: [Ca+2].[Cl-].[Cl-] [CaCl2]
- effect of divalent metal cations on proteolysis (densitometry of intact IGFBP-1) [1, 7]: significant promoting effect

Compound: [Cl-].[Cl-].[Co+2] [CoCl2]
- effect of divalent metal cations on proteolysis (densitometry of intact IGFBP-1) ([1]; pH 7): inhibited

Compound: [Cl][Cu][Cl] [CuCl2]
- effect of divalent metal cations on proteolysis (densitometry of intact IGFBP-1) [1, 7]: inhibited

Compound: O=C(O)CN(CCN(CC(=O)O)CC(=O)O)CC(=O)O [EDTA]
- effect on the degree of IGFBP-1 degradation [1]: no effect

Compound: O=C(O)CN(CCOCCOCCN(CC(=O)O)CC(=O)O)CC(=O)O [EGTA]
- effect on the degree of IGFBP-1 degradation ([1]; data not shown): no effect

Compound: [Cl][Ni][Cl] [NiCl2]
- effect of divalent metal cations on proteolysis (densitometry of intact IGFBP-1) [1, 7]: inhibited

Compound: O=S(=O)(F)Cc1ccccc1 [PMSF]
- effect on protease activity in urine ([1]; 10 mM, pH 7, 0.5 μL urine, 2 h, 37 C): inhibited

Compound: Cc1ccc(S(=O)(=O)N[C@@H](CCCCN)C(=O)CCl)cc1 [TLCK]
- effect on proteolysis in urine ([1]; concentration not given): did not

Compound: Cc1ccc(S(=O)(=O)N[C@@H](Cc2ccccc2)C(=O)CCl)cc1 [TPCK]
- effect on proteolysis in urine ([1]; 1 mM): inhibited

Compound: CC(C)C[C@H](NC(=O)[C@@H](NC(=O)N[C@@H](Cc1ccccc1)C(=O)O)[C@@H]1CCN=C(N)N1)C(=O)N[C@H](C=O)Cc1ccccc1 [chumostatin]
- effect on protease activity in urine ([1]; 10 μM, pH 7, 0.5 μL urine, 2 h, 37 C): inhibited

Compound: CC(C)CC(=O)N[C@H](C(=O)N[C@H](C(=O)N[C@@H](CC(C)C)[C@@H](O)CC(=O)N[C@@H](C)C(=O)N[C@@H](CC(C)C)[C@@H](O)CC(=O)O)C(C)C)C(C)C [pepstatin, pepstatin A] (Isovaleryl-VV[Sta]A[Sta]-OH)
- effect on acid-activated urinary IGFBP-1 protease activity [2]: inhibits
- effect on neutral urinary IGFBP-1 protease activity [3]: not the neutral activity

Compound: IGF-I: recombinant human insulin-like growth factor I
- effect of peptides on IGFBP-1 proteolysis [1]: Partial inhibition

Compound: IGF-II: human insulin-like growth factor II
- effect of peptides on IGFBP-1 proteolysis [1]: Partial inhibition
- stimulation of 3H-thymidine incorporation [4]: 2 fold
- stimulation of glucose uptake [5]: more than 2 fold

Compound: aprotinin
- effect of aprotinin on protease activity (IGFBP-1 proteolysis) ([1]; 100 μM aprotinin (FIG. 7A), pH 7, different experiments): either without effect, or even promoted protease activity; also recorded: increasing IGFBP-1 proteolysis

Compound: cyclohexylacetyl-Phe-Arg-Ser-Val-Gln [kallikrein inhibitor]
- effect on protease activity in urine ([1]; 100 μM, pH 7, 0.5 μL urine, 2 h, 37 C): inhibited

Compound: des(1-3)-IGF-I: truncated IGF-I from GroPep
- effect of peptide on IGFBP-1 proteolysis [6]: no effect

Compound: insulin
- effect of peptides on IGFBP-1 proteolysis [1]: no effect
